Experimental findings from patent publication US8680159B2, “Bradykinin 1 receptor modulating compounds” (Gruenenthal GmbH, priority 2010, dated 2014) are described below.

Experiment [1] has as its target T1, human B1R receptor (CHO K1 cells stably transfected with the human B1R gene) (Homo sapiens, UniProt P46663).
T1 construct: expressed in transfected cells; host or cells: CHO K1 cells (Chinese hamster ovary), stably transfected
T1 sequence (P46663 1-353): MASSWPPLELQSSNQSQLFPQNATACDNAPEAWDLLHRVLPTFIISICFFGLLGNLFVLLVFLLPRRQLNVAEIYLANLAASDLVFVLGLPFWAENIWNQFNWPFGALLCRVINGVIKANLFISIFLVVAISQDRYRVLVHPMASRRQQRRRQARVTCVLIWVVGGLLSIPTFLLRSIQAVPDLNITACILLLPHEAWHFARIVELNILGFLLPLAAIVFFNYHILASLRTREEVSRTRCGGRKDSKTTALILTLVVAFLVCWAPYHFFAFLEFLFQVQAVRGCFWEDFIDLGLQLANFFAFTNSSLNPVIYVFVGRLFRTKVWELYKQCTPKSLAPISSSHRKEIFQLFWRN
The experiment is described as follows: Functional study on the bradykinin receptor 1 (B1R), Ca2+ fluorescence (Fluo-4) FLIPR/Novostar assay, hB1R cells. It is filed as cell-based. In outline:
(§1)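 Stably transfected CHO K1 cells carrying human or rat B1R were Fluo-4 loaded and Ca2+ fluorescence read by FLIPR or Novostar. Compounds were added first at 10 μM for % activation, then the EC80 agonist was applied after 6-20 min (human: Lys-Des-Arg9-bradykinin; rat: Des-Arg9-bradykinin). % inhibition is relative to maximum achievable inhibition, and IC50 comes from concentration series.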

Experiment [2] concerns the target T2, B1R receptor of the rat (CHO K1 cells stably transfected with the B1R gene of the rat) (Rattus norvegicus, UniProt P97583).
T2 construct: expressed in transfected cells; host or cells: CHO K1 cells (Chinese hamster ovary), stably transfected
T2 sequence (P97583 1-337): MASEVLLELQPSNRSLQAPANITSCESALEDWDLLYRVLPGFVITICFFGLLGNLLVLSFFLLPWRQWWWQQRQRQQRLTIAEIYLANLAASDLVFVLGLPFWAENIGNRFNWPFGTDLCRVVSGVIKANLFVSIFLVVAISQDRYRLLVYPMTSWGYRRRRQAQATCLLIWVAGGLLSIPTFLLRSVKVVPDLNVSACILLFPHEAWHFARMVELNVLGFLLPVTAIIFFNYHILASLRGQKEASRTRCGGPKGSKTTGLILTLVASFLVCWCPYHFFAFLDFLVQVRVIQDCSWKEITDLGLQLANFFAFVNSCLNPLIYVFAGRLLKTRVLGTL
The experiment is described as follows: Functional study on the bradykinin receptor 1 (B1R), Ca2+ fluorescence (Fluo-4) FLIPR/Novostar assay, rB1R cells. It is filed as cell-based. Particulars: for inhibition at 10 µM: CHO-K1, 10 μM. In outline:
as §1

Setting [3] is: CHO-K1, read-out: % inhibition (human B1R) at 10 μM.
[4] abbreviates: read-out: % inhibition (rat B1R) at 10 μM.
The mark [5] stands for this setting: CHO-K1, read-out: % Inhibition (h-B1R) at 10 μM.
Setting [6] is: read-out: % Inhibition (r-B1R) at 10 μM.

Where two headings read alike, the source gives them in different places.

Consider `CN(C(=O)c1ccc2c(c1)CC[C@H]2N1Cc2cccc(Cl)c2C1=O)C1CCN(c2ccncc2)CC1` [Example H-11, (1R)-1-(4-Chloro-3-oxo-1,2-dihydro-isoindol-2-yl)-N-methyl-N-(1-pyridin-4-yl-piperidin-4-yl)-2,3-dihydro-1H-indene-5-carboxylic acid amide], for which the inhibition at 10 µM in experiment [1] (setting [3]) is 99%; in experiment [2] (setting [4]) it was 49%.

In the case of `CC(C)CC(=O)NC1CCOc2ccc(C(=O)N(C)C3CCN(c4ccncc4)CC3)cc21` (stereo not shown) [CC_H-39, N-Methyl-4-(3-methyl-butanoylamino)-N-(1-pyridin-4-yl-piperidin-4-yl)-3,4-dihydro-2H-chromene-6-carboxylic acid amide], the inhibition at 10 µM in experiment [1] (setting [5]) came to 99%. Further, the “% Inhibition (r-B1R) at 10 μM” value in experiment [2] stood at 104%.

Take `CC(C)CN(C(=O)c1ccccc1Cl)[C@@H]1CCc2ccc(C(=O)N(C)C3CCN(c4ccncc4)CC3)cc21` [Example H-65, (3R)-3-[(2-Chloro-benzoyl)-(2-methyl-propyl)-amino]-N-methyl-N-(1-pyridin-4-yl-piperidin-4-yl)-2,3-dihydro-1H-indene-5-carboxylic acid amide]: the values for the inhibition at 10 µM in experiment [1] (setting [3]) and in experiment [2] (setting [4]) were 100% and 107%, respectively.

In the case of `CN(C(=O)c1ccc2c(c1)[C@H](NC(=O)c1cnn3cccnc13)CC2)C1CCN(c2ccncc2)CC1` [Example H-22, N-[(1R)-6-[Methyl-(1-pyridin-4-yl-piperidin-4-yl)-carbamoyl]-2,3-dihydro-1H-indene-1-yl]-pyrazolo[1,5-a]pyrimidine-3-carboxylic acid amide], the inhibition at 10 µM in experiment [1] (setting [3]) amounted to 100%; in experiment [2] (setting [4]) it was 87%.

Consider `CN(C(=O)c1ccc2c(c1)C(N(C)C(=O)C1CCCCC1)CC2)C1CCN(c2ccncc2)CC1` (stereo not shown) [CC_H-69, 3-(Cyclohexanecarbonyl-methyl-amino)-N-methyl-N-(1-pyridin-4-yl-piperidin-4-yl)-2,3-dihydro-1H-indene-5-carboxylic acid amide], for which the inhibition at 10 µM in experiment [1] (setting [5]) was determined as 99%. Further, the “% Inhibition (r-B1R) at 10 μM” value in experiment [2] amounted to 104%.

`O=C(NCCC1CCN(c2ccncc2)CC1)c1ccc2c(c1)C(NS(=O)(=O)c1c(Cl)cccc1C(F)(F)F)CC2` (stereo not shown) [CC_H-50, 3-[[[2-Chloro-6-(trifluoromethyl)-phenyl]sulfonyl]amino]-N-[2-(1-pyridin-4-yl-piperidin-4-yl)-ethyl]-2,3-dihydro-1H-indene-5-carboxylic acid amide]: the inhibition at 10 µM in experiment [1] (setting [5]) turned out to be 100%; in experiment [2] (setting [6]), 101%.

For the compound `Cc1cc(N2CCC(N(C)C(=O)c3cc4c(cc3F)[C@H](NC(=O)c3ccccc3Cl)CC4)CC2)ncn1` [Example H-152, (1R)-1-[(2-Chloro-benzoyl)amino]-6-fluoro-N-methyl-N-[1-(6-methyl-pyrimidin-4-yl)-piperidin-4-yl]-2,3-dihydro-1H-indene-5-carboxylic acid amide], the inhibition at 10 µM was 82% in experiment [1] (setting [3]) and 93% in experiment [2] (setting [4]).

For the compound `CN(C(=O)c1ccc2c(c1)[C@H](NC(=O)c1ccccc1Cl)CC2)C1CCCN(c2ccncc2)CC1` (stereo partly drawn) [Example H-116, (3R)-3-[(2-Chloro-benzoyl)amino]-N-methyl-N-(1-pyridin-4-yl-azepan-4-yl)-2,3-dihydro-1H-indene-5-carboxylic acid amide], the inhibition at 10 µM in experiment [1] (setting [3]) is 99%; in experiment [2] (setting [4]) it was 103%.

On to `CN(C(=O)c1ccc2c(c1)[C@H](NC(=O)c1cccc3ccccc13)CC2)C1CCN(c2ccncc2)CC1` [Example H-73, N-[(1R)-6-[Methyl-(1-pyridin-4-yl-piperidin-4-yl)-carbamoyl]-2,3-dihydro-1H-Inden-1-yl]-naphthalene-1-carboxylic acid amide], for which the results for the inhibition at 10 µM in experiment [1] (setting [3]) and in experiment [2] (setting [4]) were 100% and 104%, respectively.

Take `CN(C(=O)c1ccc2c(c1)[C@H](NC(=O)C1CCOCC1)CC2)C1CCN(c2ccncc2)CC1` [Example H-76, N-[(1R)-6-[Methyl-(1-pyridin-4-yl-piperidin-4-yl)-carbamoyl]-2,3-dihydro-1H-yl)-1-2,3-tetrahydro-pyran-4-carboxylic acid amide]: the inhibition at 10 µM in experiment [1] (setting [3]) came out at 95%; in experiment [2] (setting [4]), 107%.

As for `CN(C(=O)c1ccc2c(c1)[C@H](NC(=O)c1ccccc1Cl)CCO2)C1CCN(c2ccncc2)CC1` [Example H-20, (4R)-4-[(2-Chloro-benzoyl)amino]-N-methyl-N-(1-pyridin-4-yl-piperidin-4-yl)-3,4-dihydro-2H-chromene-6-carboxylic acid amide], the inhibition at 10 µM in experiment [1] (setting [3]) came out at 100%; in experiment [2] (setting [4]) it was 103%.

`CC(C)N(C(=O)c1ccccc1Cl)[C@@H]1CCc2cc(F)c(C(=O)N(C)C3CCN(c4ccncc4)CC3)cc21` [Example H-155, (3R)-3-[(2-Chloro-benzoyl)-isopropyl-amino]-6-fluoro-N-methyl-N-(1-pyridin-4-yl-piperidin-4-yl)-2,3-dihydro-1H-indene-5-carboxylic acid amide]: the inhibition at 10 µM in experiment [1] (setting [3]) turned out to be 62%; in experiment [2] (setting [4]), 104%.

Regarding `Cc1cccc(C)c1C(=O)NC1CCc2cc(C(=O)N(C)C3CCN(c4ccncc4)CC3)ccc21` (stereo not shown) [CC_H-66, 1-[(2,6-Dimethyl-benzoyl)amino]-N-methyl-N-(1-pyridin-4-yl-piperidin-4-yl)-2,3-dihydro-1H-indene-5-carboxylic acid amide], the inhibition at 10 µM was 99% in experiment [1] (setting [5]) and 86% in experiment [2] (setting [6]).

Take `CN(C(=O)N(C)C1CCc2ccc(C(=O)N(C)C3CCN(c4ccncc4)CC3)cc21)c1ccccc1Cl` (stereo not shown) [CC_H-51, 3-[[(2-Chlorophenyl)-methyl-carbamoyl]-methyl-amino]-N-methyl-N-(1-pyridin-4-yl-piperidin-4-yl)-2,3-dihydro-1H-indene-5-carboxylic acid amide]: the figures for the inhibition at 10 µM in experiment [1] (setting [5]) and in experiment [2] (setting [6]) were 99% and 90%, respectively.

Consider `CN(C(=O)c1ccc2c(c1)C(NC(=O)C1CCCCC1)CCC2)C1CCN(c2ccncc2)CC1` (stereo not shown) [CC_H-05, 8-(Cyclohexanecarbonylamino)-N-methyl-N-(1-pyridin-4-yl-piperidin-4-yl)-5,6,7,8-tetrahydro-naphthalene-2-carboxylic acid amide], for which the values for the inhibition at 10 µM in experiment [1] (setting [5]) and in experiment [2] (setting [6]) were 98% and 103%, respectively.

As for `CN(C(=O)c1ccc2c(c1)C(NC(=O)c1cc(F)ccc1Cl)CCC2)C1CCN(c2ccncc2)CC1` (stereo not shown) [CC_H-04, 8-[(2-Chloro-5-fluoro-benzoyl)amino]-N-methyl-N-(1-pyridin-4-yl-piperidin-4-yl)-5,6,7,8-tetrahydro-naphthalene-2-carboxylic acid amide], the inhibition at 10 µM in experiment [1] (setting [5]) came to 99%. Further, the “% Inhibition (r-B1R) at 10 μM” value in experiment [2] is 104%.

Consider `CN(C(=O)c1ccc2c(c1)OCC[C@H]2NC(=O)c1ccccc1Cl)C1CCN(c2ccncc2)CC1` [Example H-44, (4R)-4-[(2-Chloro-benzoyl)amino]-N-methyl-N-(1-pyridin-4-yl-piperidin-4-yl)-3,4-dihydro-2H-chromene-7-carboxylic acid amide], for which the inhibition at 10 µM in experiment [1] (setting [3]) and in experiment [2] (setting [4]) was 94% throughout.

For `CN1CCC(N2CCC(NC(=O)c3ccc4c(c3)CC[C@H]4N3Cc4cccc(Cl)c4C3=O)CC2)CC1` [Example H-42, (1R)-1-(4-Chloro-3-oxo-1,2-dihydro-isoindol-2-yl)-N-[1-(1-methyl-piperidin-4-yl)-piperidin-4-yl]-2,3-dihydro-1H-indene-5-carboxylic acid amide], the inhibition at 10 µM is 65% in experiment [1] (setting [3]) and 18% in experiment [2] (setting [4]).

With `Cc1cc(N2CCC(N(C)C(=O)c3ccc4c(c3)[C@H](N(C)C(=O)c3cccnc3C(F)(F)F)CC4)CC2)nc(C)n1` [Example H-171, N-[(1R)-6-[[1-(2,6-Dimethyl-pyrimidin-4-yl)-piperidin-4-yl]-methyl-carbamoyl]-2,3-dihydro-1H-inden-1-yl]-N-methyl-2-(trifluoromethyl)pyridine-3-carboxylic acid amide], the inhibition at 10 µM in experiment [1] (setting [3]) was 100%; in experiment [2] (setting [4]), 104%.

In the case of `CN(C(=O)c1ccc2c(c1)CCC2NC(=O)c1cccc(Cl)c1Cl)C1CCN(c2ccncc2)CC1` (stereo not shown) [CC_H-67, 1-[(2,3-Dichloro-benzoyl)amino]-N-methyl-N-(1-pyridin-4-yl-piperidin-4-yl)-2,3-dihydro-1H-indene-5-carboxylic acid amide], the results for the inhibition at 10 µM in experiment [1] (setting [5]) and in experiment [2] (setting [6]) were 100% and 98%, respectively.

By inhibition is commonly meant the drop in the measured response relative to a control, in per cent.
